23 compounds from US11440913B2, “Aminoimidazopyridazines as kinase inhibitors” (BRISTOL-MYERS SQUIBB COMPANY, priority 2017, dated 2022) can be followed below.

Structures are written as SMILES. Counter-ions that a name gives are not always drawn. Like-named read-outs stand apart in the source and are kept apart here.

By IC50 is commonly meant the midpoint of a concentration-inhibition curve.

In test [1] the target is His-GST-TVMV-hRIPK1(1-324) (Homo sapiens (Human), UniProt Q13546). Kind of test: RIPK1 HTRF Binding Assay. The conditions noted are these: HTRF binding, 1 h at rt; read-out: RIPK1 (IC50). The gist of the method: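 HTRF probe-displacement binding: 1 nM His-GST-TVMV-hRIPK1(1-324) (baculovirus construct), 90.6 nM probe, 0.2 nM anti-GST-Tb in 20 mM HEPES, 10 mM MgCl2, 0.015% Brij-35, 4 mM DTT, 0.05 mg/mL BSA. Incubated 1 h at rt; FRET 520/495 nm ratio, inhibition relative to DMSO-only wells.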
(Time-resolved FRET reads energy transfer from a long-lived donor to a nearby acceptor.)

For test [2], the system named is MLKL phosphorylation in HT29-L23 human colorectal adenocarcinoma cells. Kind of test: MLKL Phosphorylation High-Content Assay. It is filed as cell-based. The following applies: 6 h, necroptosis induced with TNFα, SMAC mimetic and Z-VAD, read-out: pMLKL (IC50). In a few lines: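 HT29-L23 cells pretreated 30 min at 37 °C with compound (6.25 to 0.106 μM final), then necroptosis induced with TNFα 35 ng/mL, SMAC mimetic 700 nM and Z-VAD 140 nM for 6 h. Fixed cells immunostained for MLKL pS358 and imaged; IC50 and Ymax from 4-parameter logistic fit.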

Chain of His-GST-TVMV-hRIPK1(1-324) (Q13546 1-324): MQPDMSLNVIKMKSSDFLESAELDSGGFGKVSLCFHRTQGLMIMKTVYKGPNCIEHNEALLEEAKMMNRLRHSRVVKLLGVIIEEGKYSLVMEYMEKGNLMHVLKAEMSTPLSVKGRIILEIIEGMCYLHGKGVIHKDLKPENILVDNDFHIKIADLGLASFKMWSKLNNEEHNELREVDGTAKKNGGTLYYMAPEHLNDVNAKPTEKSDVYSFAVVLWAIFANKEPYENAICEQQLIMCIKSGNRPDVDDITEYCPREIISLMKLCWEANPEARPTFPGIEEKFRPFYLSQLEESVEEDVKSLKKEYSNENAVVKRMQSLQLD

As to `Cc1ncc(-c2ccc3nc(NC(=O)CN4CCC(F)(F)CC4)cn3n2)cc1C(=O)NCC[C@@H](O)c1ccc(Cl)cc1` [Example 343, N-[(3R)-3-(4-chlorophenyl)-3-hydroxypropyl]-5-{2-[2-(4,4-difluoropiperidin-1-yl)acetamido]imidazo[1,2-b]pyridazin-6-yl}-2-methylpyridine-3-carboxamide], the IC50 amounted to 9 nM in test [1] and 24 nM in test [2] (Homo sapiens).
Turning to `CC(=O)Nc1cn2nc(-c3cc(C(=O)NCc4cc(F)cc(F)c4OC4CCCOC4)c(C)nc3C)ccc2n1` (stereo not shown) [Example 59, N-{[3,5-difluoro-2-(oxan-3-yloxy)phenyl]methyl}-5-{2-acetamidoimidazo[1,2-b]pyridazin-6-yl}-2,6-dimethylpyridine-3-carboxamide], the IC50 in test [1] worked out at 12 nM; in test [2] (Homo sapiens) it was 17 nM.
`[2H]C([2H])(NC(=O)c1cc(-c2ccc3nc(NC(=O)CC)cn3n2)cnc1OC)c1cc(OC(F)(F)F)ccc1F` [Example 244, N-{[2-fluoro-5-(trifluoromethoxy)phenyl](deutero)methyl}-2-methoxy-5-{2-propanamidoimidazo[1,2-b]pyridazin-6-yl}pyridine-3-carboxamide]: the IC50 is 257 nM in test [1] and 4 nM in test [2] (Homo sapiens).
Take `Cc1nc(C)c(-c2ccc3nc(NC(=O)CO)cn3n2)cc1C(=O)N[C@H](C)c1cc(OC(F)(F)F)ccc1F` [Example 95, N-[(1R)-1-[2-fluoro-5-(trifluoromethoxy)phenyl]ethyl]-5-[2-(2-hydroxyacet-amido)imidazo[1,2-b]pyridazin-6-yl]-2,6-dimethylpyridine-3-carboxamide]: the results for the IC50 in test [1] and in test [2] (Homo sapiens) were 30 nM and 68 nM, respectively.
For `CC(=O)Nc1cn2nc(-c3cc(C(=O)NCc4cc(F)cc(F)c4OCC4CC4)c(C)nc3C)ccc2n1` [Example 87, N-{[2-(cyclopropylmethoxy)-3,5-difluorophenyl]methyl}-5-{2-acetamidoimidazo[1,2-b]pyridazin-6-yl}-2,6-dimethylpyridine-3-carboxamide], the IC50 in test [1] and in test [2] (Homo sapiens) was 3 nM each time.
`Cc1c(F)cc(-c2ccc3nc(NC(=O)CN(C)C)cn3n2)cc1C(=O)NCC[C@H](O)c1ccc(Cl)cc1` [Example 362, N-[(3S)-3-(4-chlorophenyl)-3-hydroxypropyl]-5-{2-[2-(dimethylamino)acetamido]imidazo[1,2-b]pyridazin-6-yl}-3-fluoro-2-methylbenzamide]: the figures for the IC50 in test [1] and in test [2] (Homo sapiens) were 6 nM and 5 nM, respectively.
`COc1ncc(-c2ccc3nc(NC(C)=O)cn3n2)cc1C(=O)NCc1ccccc1OCC1CCC1` [Example 155, N-{[2-(cyclobutylmethoxy)phenyl]methyl}-5-{2-acetamidoimidazo[1,2-b]pyridazin-6-yl}-2-methoxypyridine-3-carboxamide]: the IC50 in test [1] came to 2 nM; in test [2] (Homo sapiens), 6 nM.
In the same order, the values of `COc1ncc(-c2ccc3nc(NC(C)=O)cn3n2)cc1C(=O)NCc1ccccc1OCC1CC1` [Example 22, N-{[2-(cyclopropylmethoxy)phenyl]methyl}-5-{2-acetamidoimidazo[1,2-b]pyridazin-6-yl}-2-methoxypyridine-3-carboxamide] are 4 nM and 26 nM.
As to `CC(=O)Nc1cn2nc(-c3ccc(C)c(C(=O)NCc4cc(C(=O)N5CC(F)(F)C5)ccc4F)c3)ccc2n1` [Example 404, N-{[5-(3,3-difluoroazetidine-1-carbonyl)-2-fluorophenyl]methyl}-5-{2-acetamidoimidazo [1,2-b]pyridazin-6-yl}-2-methylbenzamide], the IC50 in test [1] is 52 nM; in test [2] (Homo sapiens), 259 nM.
Consider `Cc1nc(C)c(-c2ccc3nc(NC(=O)CO)cn3n2)cc1C(=O)NCc1cc(F)cc(F)c1O[C@H]1CCOC1` [Example 91, N-({3,5-difluoro-2-[(3S)-oxolan-3-yloxy]phenyl}methyl)-5-[2-(2-hydroxy-acetamido)imidazo[1,2-b]pyridazin-6-yl]-2,6-dimethylpyridine-3-carboxamide, TFA], for which the IC50 in test [1] was found to be 61 nM; in test [2] (Homo sapiens), 442 nM.
For the compound `[2H]C([2H])([2H])[C@@H](NC(=O)c1c(C)ccc(-c2ccc3nc(NC(C)=O)cn3n2)c1F)c1cc(OC(F)(F)F)ccc1F` [Example 412, 3-{2-acetamidoimidazo [1,2-b]pyridazin-6-yl}-2-fluoro-N-[(1R)-1-[2-fluoro-5-(trifluoromethoxy)phenyl](2,2,2-Â^2Hâ,f)ethyl]-6-methylbenzamide], the IC50 in test [1] came to 4 nM; in test [2] (Homo sapiens), 1 nM.
Take `COc1ncc(-c2ccc3nc(NC(C)=O)cn3n2)cc1C(=O)NCc1cccc(C(F)(F)F)c1` [Example 110, 5-{2-acetamidoimidazo[1,2-b]pyridazin-6-yl}-2-methoxy-N-{[3-(trifluoromethyl)phen-yl](deutero)methyl}pyridine-3-carboxamide]: the IC50 in test [1] was 27 nM; in test [2], 113 nM.
On to `COc1ncc(-c2ccc3nc(NC(C)=O)cn3n2)cc1C(=O)N[C@H](C)c1cc(C(F)(F)F)ccc1F` [Example 107, 5-{2-acetamidoimidazo[1,2-b]pyridazin-6-yl}-N-[(1R)-1-[2-fluoro-5-(trifluoromethyl)phenyl](2,2,2-deutero)ethyl]-2-methoxypyridine-3-carboxamide], for which the IC50 in test [1] came to 193 nM; in test [2] it was 306 nM.
As for `CC(=O)Nc1cn2nc(-c3cc(C(=O)NCc4ccccc4OC(F)(F)F)c(C)nc3C)ccc2n1` [Example 89, 5-{2-acetamidoimidazo[1,2-b]pyridazin-6-yl}-2,6-dimethyl-N-{[2-(trifluoro-methoxy)phenyl]methyl}pyridine-3-carboxamide], the IC50 was 38 nM in test [1] and 88 nM in test [2] (Homo sapiens).
In the case of `COc1ncc(-c2ccc3nc(NC(C)=O)cn3n2)cc1C(=O)NCc1c(F)ccc(F)c1OC` [Example 141, N-[(3,6-difluoro-2-methoxyphenyl)methyl]-5-{2-acetamidoimidazo[1,2-b]pyridazin-6-yl}-2-methoxypyridine-3-carboxamide], the IC50 in test [1] amounted to 97 nM; in test [2] (Homo sapiens), 256 nM.
Take `CC(=O)Nc1cn2nc(-c3cnc(C)c(C(=O)NCc4c(F)cccc4OCC(F)(F)F)c3)ccc2n1` [Example 190, 5-{2-acetamidoimidazo[1,2-b]pyridazin-6-yl}-N-{[2-fluoro-6-(2,2,2-trifluoroethoxy)phenyl]methyl}-2-methylpyridine-3-carboxamide]: the figures for the IC50 in test [1] and in test [2] (Homo sapiens) were 23 nM and 35 nM, respectively.
`Cc1ncc(-c2ccc3nc(NC(=O)C(C)(C)C#N)cn3n2)cc1C(=O)NCc1ccccc1Sc1ccccc1CO` [Example 26, 5-[2-(2-cyano-2,2-dimethylacetamido)imidazo[1,2-b]pyridazin-6-yl]-N-[(2-{[2-(hydroxymethyl)phenyl]sulfanyl}phenyl)methyl]-2-methylpyridine-3-carboxamide]: the IC50 in test [1] is 25 nM; in test [2] (Homo sapiens), 192 nM.
With `[2H]C([2H])([2H])Oc1nc(C)c(-c2ccc3nc(NC(C)=O)cn3n2)cc1C(=O)NCc1cc(F)cc(F)c1O[C@@H]1CCOC1` [Example 169, N-({3,5-difluoro-2-[(3R)-oxolan-3-yloxy]phenyl}methyl)-5-{2-acetamidoimidazo[1,2-b]pyridazin-6-yl}-2-(deutero)methoxy-6-methylpyridine-3-carboxamide], the values for the IC50 in test [1] and in test [2] (Homo sapiens) were 3 nM and 10 nM, respectively.
In the case of `COc1ncc(-c2ccc3nc(NC(C)=O)cn3n2)cc1C(=O)NCc1ccccc1OC(F)(F)F` [Example 157, 5-{2-acetamidoimidazo[1,2-b]pyridazin-6-yl}-2-methoxy-N-{[2-(trifluoro-methoxy)phenyl]methyl}pyridine-3-carboxamide], the IC50 in test [1] came to 17 nM; in test [2] (Homo sapiens), 93 nM.
Turning to `CCC(=O)Nc1cn2nc(-c3cnc(OC)c(C(=O)N[C@H](C)c4cc(OC(F)(F)F)ccc4F)c3)ccc2n1` [Example 245, N-[(1R)-1-[2-fluoro-5-(trifluoromethoxy)phenyl]ethyl]-2-methoxy-5-{2-propanamidoimidazo[1,2-b]pyridazin-6-yl}pyridine-3-carboxamide], the IC50 in test [1] worked out at 486 nM; in test [2] (Homo sapiens) it was 132 nM.
For `CC(=O)Nc1cn2nc(-c3cc(C(=O)N[C@H](C)c4cc(OC(F)(F)F)ccc4F)c(C)nc3C)ccc2n1` [Example 71, 5-{2-acetamidoimidazo[1,2-b]pyridazin-6-yl}-N-[(1R)-1-[2-fluoro-5-(trifluoromethoxy)phenyl]ethyl]-2,6-dimethylpyridine-3-carboxamide], the figures for the IC50 in test [1] and in test [2] (Homo sapiens) were 5 nM and 13 nM, respectively.
In the same order, the values of `[2H]C([2H])([2H])Oc1ncc(-c2ccc3nc(NC(C)=O)cn3n2)cc1C(=O)NCc1cc(OC)ccc1F` [Example 40, 5-{2-acetamidoimidazo[1,2-b]pyridazin-6-yl}-N-[(2-fluoro-5-methoxyphenyl)methyl]-2-(D3)methoxypyridine-3-carboxamide] are 125 nM and 265 nM.
As for `COc1ncc(-c2ccc3nc(NC(C)=O)c(C)n3n2)cc1C(=O)NCc1cc(C(F)(F)F)ccc1F` [Example 254, 5-{2-acetamido-3-methylimidazo[1,2-b]pyridazin-6-yl}-N-{[2-fluoro-5-(trifluoromethyl)phenyl]methyl}-2-methoxypyridine-3-carboxamide], the IC50 in test [1] came to 101 nM; in test [2] (Homo sapiens) it was 66 nM.
